The record followed here is patent US20220267310A1, “QUINAZOLINE AND CINNOLINE DERIVATIVES AS DNA-PK INHIBITOR” (MEDSHINE DISCOVERY INC., priority 2019, published 2022).

Molecules are shown by their SMILES.

The target of one data set is T1, DNA-PK (h) (Homo sapiens, UniProt P78527).
T1 construct: Eurofins Pharma Discovery Service (contract assay)
The data set is described as follows: DNA-PK kinase inhibitory activity (HTRF, Eurofins). In kind it is biochemical. The following applies: ATP: 10 μM. As for the experimental part: (§1) This experiment was tested at Eurofins Pharma Discovery Service, Reaction Biology Corp. (RBC)
(§2) […] DNA-PK: Mg/ATP; GST-cMyc-p53; EDTA; Ser15 antibody; ATP: 10 μM; biotinylated phosphatidylinositol-3,4,5-triphosphate; GST label GRP1 PH domain; streptavidin and phycocyanin; europium-labelled monoclonal antibody against GST.
DNA-PK (h) was incubated in a determination buffer containing 50 nM GST-cMyc-p53 and Mg/ATP (density as required). The reaction was initiated by adding a mixture of Mg/ATP. After incubating at room temperature for 30 min, a termination solution containing EDTA was added to terminate the reaction. Finally, a detection buffer (containing labeled anti-GST monoclonal antibody and europium-labeled anti-phosphate Ser15 antibody against phosphorylated p53) was added. Then, the board was read in time-resolved fluorescence mode, and a Homogeneous Time Resolved Fluorescence (HTRF) signal was measured according to the formula HTRF=10000×(Em665 nm/Em620 nm).
On the technique in general: In TR-FRET formats the signal depends on donor and acceptor labels being close together.

The target in the next data set is T2, PI3K (p110α/p85α) (Homo sapiens, UniProt P42336).
T2 construct: Eurofins Pharma Discovery Service (contract assay)
The data set is described as follows: PI3K (p110α/p85α) kinase inhibitory activity (HTRF). In kind it is biochemical. The procedure: as §1, §2
PI3K (p110α/p85α) was incubated in a determination buffer containing phosphatidylinositol 4,5-diphosphate and Mg/ATP (density as required). The reaction was initiated by adding an ATP solution. After incubating at room temperature for 30 min, a termination solution containing EDTA and biotinylated phosphatidylinositol-3,4,5-triphosphate was added to terminate the reaction. Finally, a detection buffer (containing labeled anti-GST monoclonal antibody, PH domain of GRP1 with GST label and streptavidin and phycyanin and […]) was added. Then, the board was read in time-resolved fluorescence mode, and an HTRF signal was measured according to the formula HTRF=10000×(Em665 nm/Em620 nm).

For the next data set, the target named is T3, PI3K (p110σ/p85α) (Homo sapiens, UniProt O00329).
T3 construct: Eurofins Pharma Discovery Service (contract assay)
Briefly: PI3K (p110σ/p85α) kinase inhibitory activity (HTRF). In kind it is biochemical.

The nature of data set [1]: Pharmacokinetic evaluation in mice, IV and PO. Type of data set: in vivo, Balb/c female mice. The procedure: The tested compound was mixed with 10% DMSO/50% PEG400/40% water, vortexized and ultrasonic to prepare 0.2 mg/mL or 0.4 mg/ml, approximately clarified solution, which was filtered by a microporous membrane and then standby. Balb/c female mice of 18-20 g were selected and given the candidate compound solution intravenously at a dose of 1 or 2 mg/kg. The tested compound was mixed with 10% DMSO/50% PEG400/40% water, vortexized and ultrasonic to prepare 0.2 mg/mL or 1 mg/mL approximately clarified solution, which was filtered by a microporous membrane and then standby. Balb/c female mice of 18 to 20 g were selected and given orally the candidate compound solution at a dose of 2 or 10 mg/kg. Whole blood was collected for a certain period of time, and plasma was prepared. Drug concentration was analyzed by LC-MS/MS method, and pharmacokinetic parameters were calculated by Phoenix WinNonlin software (US Pharsight company).
C0: instantaneous concentration required after intravenous injection; Cmax: the highest blood concentration after administration; Tmax: time required to reach peak concentration after administration; T1/2: the time required for blood drug concentration to decrease by half; Vdss: apparent volume of distribution, which refers to the ratio constant of drug dosage to blood concentration when a drug reaches dynamic equilibrium in vivo. Cl: clearance rate, referring to drug apparent distribution volume number removed from the body per unit time; Tlast: time of last detection point: AUC0-last: an area under a drug duration curve, referring to an area surrounded by the blood drug concentration curve on the time axis; Bioavailability: a measure of the rate and extent of drug absorption into the blood circulation, which was an important index to evaluate drug absorption degree.

The test system of data set [2] is human small cell lung cancer NCI-H69 xenograft tumor model. Briefly: NCI-H69 xenograft, mono and combination with etoposide, 24-day experiment (Table 8). The following applies: etoposide 10 mg/kg alone. Type of data set: in vivo, BALB/c nude mice. The procedure:
Experiment example 3: in vivo pharmacodynamics of human small cell lung cancer NCI-H69 cell subcutaneous xenograft tumor BALB/c nude mouse model:
Experimental animals: Female BALB/c nude mice, 6-8 weeks old, weighing 15-22 grams; supplier: Shanghai Linchang Biotechnology Co., LTD. (Linchang, Shanghai)
Human small cell lung cancer NCI-H69 cells (ATCC, item number: HTB-119 and ECACC-95111733) were cultured in vitro in a culture condition of RPMI-1640 medium with 10% fetal bovine serum, 100 U/mL penicillin and 100 μg/mL streptomycin, incubated at 37° C. and 5% CO2. Conventional passage was carried out twice a week. When cell saturation was 80%-90% and the number reaches the requirement, cells were collected, counted and inoculated.
0.2 mL (10×10^6) NCI-H69 cells (with matrix glue, and volume ratio of 1:1) were subcutaneously inoculated into a right back of each mouse, and group administration was initiated when the average tumor volume reaches about 110-120 mm^3.
The tested compound was prepared as a 5 mg/mL clarified solution with 10% DMSO+50% polyethylene glycol 400+40% water as the solvent.
The experimental indicators refers to study whether tumor growth was inhibited, delayed, or cured. Tumor diameter was measured twice a week with a vernier caliper. The calculation formula of the tumor volume was V=0.5a×b^2, and a and b represent the long diameter and short diameter of the tumor, respectively.
The antitumor efficacy of the compound was evaluated by TGI (%) or relative tumor proliferation rate T/C (%). TGI (%) reflects the tumor growth inhibition rate. The calculation of TGI (%): TGI (%)=[1−(average tumor volume at the end of administration of a certain treatment group−average tumor volume at the beginning of administration of the treatment group)/(average tumor volume at the end of treatment in solvent control group−average tumor volume at the beginning of treatment in solvent control group)]×control group.
Relative tumor proliferation rate T/C (%): the calculation formula was as follows: T/C %=[…] TRTV/CRTV group (TRTV: treatment group RTV; CRTV: negative control group RTV). According to results of tumor measurement, Relative Tumor Volume (RTV) was calculated by the formula RTV=Vt/V0, where V0 was the average tumor volume measured in group administration (i.e., d0), and Vt was the average tumor volume measured in a certain single measurement. TRTV and CRTV collect data on the same day.
Statistic analysis includes an average value and a standard error (SEM) of tumor volume at each time point for each group. […] If there was no significant difference in F value, Dunnet (2-sided) method was applied to analysis. All data were analyzed using SPSS 17.0. P<0.05 was considered as having a significant difference.

[3] abbreviates: female, Balb/c, IV(1 mg/kg), mouse plasma.
The mark [4] stands for this setting: female, Balb/c, PO(2 mg/kg), mouse plasma.

The term IC50 denotes the concentration that inhibits the measured activity by half. A low value points to greater potency. As a reminder, the bioavailability is the share of a dose that reaches the circulation, judged against a reference dose that is usually intravenous. Read a high bioavailability as much systemic uptake. Broadly, the AUC(0-t) is the area under the concentration-time curve up to a stated or last time point. A word on the half-life: it is the time needed for the level to fall by half in the phase considered. A higher half-life goes with slow decline. A word on the Cmax: it is the highest concentration seen after dosing. In general, Tmax refers to the time from dosing to the highest level.

T3 sequence (O00329 whole entry): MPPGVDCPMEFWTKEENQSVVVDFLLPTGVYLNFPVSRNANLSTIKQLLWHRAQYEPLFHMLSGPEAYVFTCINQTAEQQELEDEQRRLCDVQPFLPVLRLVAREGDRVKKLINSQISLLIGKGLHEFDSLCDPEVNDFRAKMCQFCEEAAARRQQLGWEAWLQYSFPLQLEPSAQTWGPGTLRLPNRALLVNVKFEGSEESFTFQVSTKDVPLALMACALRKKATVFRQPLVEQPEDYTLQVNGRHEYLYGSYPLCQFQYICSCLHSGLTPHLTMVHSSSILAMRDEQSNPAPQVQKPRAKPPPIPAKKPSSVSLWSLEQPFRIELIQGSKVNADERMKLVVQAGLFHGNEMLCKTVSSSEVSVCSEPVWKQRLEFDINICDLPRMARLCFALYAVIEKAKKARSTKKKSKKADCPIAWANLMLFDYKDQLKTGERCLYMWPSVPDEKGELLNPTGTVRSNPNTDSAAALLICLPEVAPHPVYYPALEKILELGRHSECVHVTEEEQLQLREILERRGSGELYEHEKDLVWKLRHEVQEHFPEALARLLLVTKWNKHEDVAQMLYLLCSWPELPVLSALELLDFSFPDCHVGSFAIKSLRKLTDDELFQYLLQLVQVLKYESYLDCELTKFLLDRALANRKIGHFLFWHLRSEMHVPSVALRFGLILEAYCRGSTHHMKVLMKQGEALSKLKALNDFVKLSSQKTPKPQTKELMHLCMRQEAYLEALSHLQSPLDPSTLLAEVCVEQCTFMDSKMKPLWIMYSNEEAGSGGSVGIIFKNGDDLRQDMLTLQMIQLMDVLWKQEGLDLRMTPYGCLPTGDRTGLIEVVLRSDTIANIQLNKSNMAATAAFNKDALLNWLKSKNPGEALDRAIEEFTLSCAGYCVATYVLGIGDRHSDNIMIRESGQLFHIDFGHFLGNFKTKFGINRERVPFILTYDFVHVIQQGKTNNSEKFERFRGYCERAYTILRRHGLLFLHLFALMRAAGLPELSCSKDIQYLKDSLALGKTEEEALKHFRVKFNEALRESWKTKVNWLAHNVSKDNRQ
T3 sequence (P27986 whole entry partner): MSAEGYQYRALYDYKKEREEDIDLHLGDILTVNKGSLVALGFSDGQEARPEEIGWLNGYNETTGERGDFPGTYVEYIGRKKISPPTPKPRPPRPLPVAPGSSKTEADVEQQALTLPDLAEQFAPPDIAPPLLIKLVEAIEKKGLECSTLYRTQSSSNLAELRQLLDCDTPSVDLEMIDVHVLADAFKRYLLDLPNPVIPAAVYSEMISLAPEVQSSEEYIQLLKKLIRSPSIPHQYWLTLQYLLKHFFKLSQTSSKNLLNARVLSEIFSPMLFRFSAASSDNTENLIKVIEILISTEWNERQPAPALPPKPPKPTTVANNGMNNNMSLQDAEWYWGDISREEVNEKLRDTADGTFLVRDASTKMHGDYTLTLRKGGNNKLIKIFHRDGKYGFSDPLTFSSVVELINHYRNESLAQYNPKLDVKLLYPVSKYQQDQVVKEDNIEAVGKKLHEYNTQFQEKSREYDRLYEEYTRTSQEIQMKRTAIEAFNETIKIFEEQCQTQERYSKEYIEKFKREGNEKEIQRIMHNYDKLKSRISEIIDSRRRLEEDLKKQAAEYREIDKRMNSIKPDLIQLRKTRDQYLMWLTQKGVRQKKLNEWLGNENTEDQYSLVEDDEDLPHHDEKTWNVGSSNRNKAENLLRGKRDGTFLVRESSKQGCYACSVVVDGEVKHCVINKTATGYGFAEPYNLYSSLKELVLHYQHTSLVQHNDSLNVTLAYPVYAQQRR
T2 sequence (P42336 whole entry, species assumed): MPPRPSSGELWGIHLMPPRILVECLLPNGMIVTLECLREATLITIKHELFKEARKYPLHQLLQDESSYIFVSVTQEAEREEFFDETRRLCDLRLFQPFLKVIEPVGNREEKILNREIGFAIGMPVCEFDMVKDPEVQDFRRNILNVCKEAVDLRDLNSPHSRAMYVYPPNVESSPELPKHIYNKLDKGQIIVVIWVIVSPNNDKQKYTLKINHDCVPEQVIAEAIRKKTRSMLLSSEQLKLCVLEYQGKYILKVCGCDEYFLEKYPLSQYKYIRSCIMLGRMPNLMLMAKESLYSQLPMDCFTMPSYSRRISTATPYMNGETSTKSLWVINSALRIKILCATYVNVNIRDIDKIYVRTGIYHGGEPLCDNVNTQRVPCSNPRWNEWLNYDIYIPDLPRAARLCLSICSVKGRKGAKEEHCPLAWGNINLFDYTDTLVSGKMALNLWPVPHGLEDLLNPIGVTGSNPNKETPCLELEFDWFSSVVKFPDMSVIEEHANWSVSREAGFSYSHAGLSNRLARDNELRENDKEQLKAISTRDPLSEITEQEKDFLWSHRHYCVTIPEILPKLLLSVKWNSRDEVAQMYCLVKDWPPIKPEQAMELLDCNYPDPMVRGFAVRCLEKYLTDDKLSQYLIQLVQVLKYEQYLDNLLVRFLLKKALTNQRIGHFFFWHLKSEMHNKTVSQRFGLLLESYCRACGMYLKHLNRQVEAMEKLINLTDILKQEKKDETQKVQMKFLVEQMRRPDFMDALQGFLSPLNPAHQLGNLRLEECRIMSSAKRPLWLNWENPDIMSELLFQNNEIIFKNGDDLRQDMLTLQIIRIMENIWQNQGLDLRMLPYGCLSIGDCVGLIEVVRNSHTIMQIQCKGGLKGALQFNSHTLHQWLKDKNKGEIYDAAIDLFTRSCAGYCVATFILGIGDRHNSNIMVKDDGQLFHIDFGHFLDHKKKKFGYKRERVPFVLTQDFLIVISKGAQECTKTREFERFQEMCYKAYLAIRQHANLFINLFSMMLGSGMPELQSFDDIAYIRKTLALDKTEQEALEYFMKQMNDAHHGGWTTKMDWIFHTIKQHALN
T2 sequence (P27986 whole entry partner, species assumed): as the sequence (P27986 whole entry partner) above

At DNA-PK (h), `COc1ccc(C(O)c2cc(-c3ccnc4c(F)c(N5CCOCC5)cc(F)c34)c(F)cc2Cl)nn1` (single isomer, unassigned) [Embodiment 21] came in with a 50% inhibitory concentration (IC50) of 76 nM. This lies in the double-digit nanomolar range. The same measure, in the same setting: in the case of `COc1ccc(C(O)c2cc(-c3cnnc4cc(N5CCOCC5)ccc34)c(F)cc2Cl)nn1` (single isomer, unassigned) [Embodiment 4] it was 587 nM; in that of `COc1ccc(C(O)c2cc(-c3ccnc4c(Cl)c(N5CCOCC5)ccc34)c(F)cc2Cl)nn1` (single isomer, unassigned) [Embodiment 6], 8 nM; in that of `COc1ccc(C(O)c2cc(-c3cc(N)nc4cc(N5CCOCC5)cc(F)c34)c(F)cc2Cl)nn1` (centres unmarked) [Embodiment 13], 141 nM. The same measure, in the same setting: for `COc1ccc(C(O)c2cc(-c3cnnc4c(F)c(N5CCOCC5)ccc34)c(F)cc2Cl)nn1` (centres unmarked) [Embodiment 7] the value was 1.5 nM.

Compound `Cc1nccnc1C(O)c1cc(-c2ccnc3c(F)c(N4CCOCC4)cc(F)c23)c(F)cc1Cl` (centres unmarked) [Embodiment 23] gave an IC50 at DNA-PK (h) of 8.7 nM. The same measure, in the same setting: in the case of `COc1ccc(C(O)c2cc(-c3ccnc4cc(N5CCOCC5)ccc34)c(F)cc2Cl)nn1` (single isomer, unassigned) [Embodiment 1] it was 82 nM.

The compound `COc1ccc(C(O)c2cc(-c3cc(N)nc4cc(N5CCOCC5)ccc34)c(F)cc2Cl)nn1` (centres unmarked) [Embodiment 11] yielded a 50% inhibitory concentration (IC50) on DNA-PK (h) of 4.7 nM.

As for `COc1ccc(C(O)c2cc(-c3cc(C(F)F)nc4cc(N5CCOCC5)ccc34)c(F)cc2Cl)nn1` (single isomer, unassigned) [Embodiment 16], it took 4250 nM to reach half-maximal inhibition on DNA-PK (h) (IC50). `COc1ccc(C(O)c2cc(-c3cnnc4c(F)c(N5CCOCC5)ccc34)c(F)cc2Cl)nn1` (single isomer, unassigned) [Embodiment 8] came in with an IC50 against DNA-PK (h) of 138 nM. Still for that read-out and setting: for `COc1ccc(C(O)c2cc(-c3cc(N)nc4c(F)c(N5CCOCC5)ccc34)c(F)cc2Cl)nn1` (single isomer, unassigned) [Embodiment 9] the value was 840 nM; for `COc1ccc(C(O)c2cc(-c3cc(N)nc4cc(N5CCOCC5)cc(F)c34)c(F)cc2Cl)nn1` (single isomer, unassigned) [Embodiment 14], 2.7 nM. For the compound `COc1ccc(C(O)c2cc(-c3ccnc4c(F)c(N5CCOCC5)cc(F)c34)c(F)cc2Cl)nn1` (single isomer, unassigned) [Embodiment 22], the values for the IC50 against PI3K (p110α/p85α), against PI3K (p110σ/p85α) and against DNA-PK (h) were 43 nM, 47 nM and 0.8 nM, respectively. In addition, the “Tlast” value in data set [1] (IV(1 mg/kg), mouse plasma) turned out to be 8.00 h; in data set [1] (PO(2 mg/kg), mouse plasma), 8.00 h. In addition, in data set [1] (female, Balb/c, plasma, PO(2 mg/kg), mouse), the bioavailability stood at 50%. For the same compound, the AUC(0-t) in data set [1] (setting [3]) and in data set [1] (setting [4]) was 1.98 µM·h throughout. This compound also had a C0 in data set [1] (setting [3]) of 1380 nM. Further, in data set [1] (setting [3]), the clearance came to 15.4 mL/min/kg. The results for the half-life in data set [1] (setting [3]) and in data set [1] (setting [4]) were 1.89 h and 6.25 h, respectively. In addition, in data set [1] (female, Balb/c, IV(1 mg/kg), mouse plasma, read-out: Vdss), the Vd worked out at 2.32 L/kg. The concentration in data set [1] (setting [4]) peaked (Cmax) at 456 nM. Besides, the Tmax in data set [1] (female, Balb/c, PO(2 mg/kg), mouse plasma, read-out: Tmax) came to 1 h.

Compound `COc1ccc(C(O)c2cc(-c3cc(OC)nc4cc(N5CCOCC5)ccc34)c(F)cc2Cl)nn1` (single isomer, unassigned) [Embodiment 25] gave an IC50 against DNA-PK (h) of 13100 nM. With `COc1ccc(C(O)c2cc(-c3cc(N)nc4c(F)c(N5CCOCC5)ccc34)c(F)cc2Cl)nn1` (single isomer, unassigned) [Embodiment 10], at DNA-PK (h), the IC50 amounted to 0.5 nM. Take `COc1cc([C@@H]2c3cc4c(cc3[C@@H](O[C@@H]3O[C@@H]5CO[C@@H](C)O[C@H]5[C@H](O)[C@H]3O)[C@H]3COC(=O)[C@H]23)OCO4)cc(OC)c1O` [Etoposide, etoposide, reference compound]: in data set [2], the “RTV (24th day)” value is 6.09 ± 0.85, the “T/C (%) (24th day)” value was 75.6% and the “TGI (%) (24th day)” value turned out to be 33.4%. In data set [2] (average ± SEM, n = 9), the “Tumor volume (mm^3) (0th day)” value is listed as 114 ± 9 mm^3 and the “Tumor volume (mm^3) (24th day)” value is on record as 654 + 48 mm^3. Turning to `Cc1nccnc1C(O)c1cc(-c2cnnc3c(F)c(N4CCOCC4)cc(F)c23)c(F)cc1Cl` (centres unmarked) [Embodiment 17], the IC50 against DNA-PK (h) turned out to be 15 nM.

On DNA-PK (h), `COc1ccc(C(O)c2cc(-c3cc(C(F)F)nc4cc(N5CCOCC5)ccc34)c(F)cc2Cl)nn1` (single isomer, unassigned) [Embodiment 15] had an IC50 of 71 nM. Still for that read-out and setting: for `COc1ccc(C(O)c2cc(-c3ccnc4c(Cl)c(N5CCOCC5)ccc34)c(F)cc2Cl)nn1` (single isomer, unassigned) [Embodiment 5] the value was 307 nM. For the compound `COc1ccc(C(O)c2cc(-c3cc(N)nc4cc(N5CCOCC5)ccc34)c(F)cc2Cl)nn1` (single isomer, unassigned) [Embodiment 12], on DNA-PK (h), the IC50 is 657 nM. Compound `COc1ccc(C(O)c2cc(-c3cnnc4c(F)c(N5CCOCC5)cc(F)c34)c(F)cc2Cl)nn1` (single isomer, unassigned) [Embodiment 20] returned an IC50 against DNA-PK (h) of 136 nM. `Cc1nccnc1C(O)c1cc(-c2cnnc3c(F)c(N4CCOCC4)cc(F)c23)c(F)cc1Cl` (single isomer, unassigned) [Embodiment 18]: on DNA-PK (h), the 50% inhibitory concentration (IC50) is 33 nM.

Turning to `Cc1nccnc1C(O)c1cc(-c2ccnc3c(F)c(N4CCOCC4)cc(F)c23)c(F)cc1Cl` (single isomer, unassigned) [Embodiment 24], the midpoint of inhibition on DNA-PK (h), the IC50, lay at 5.7 nM. This IC50 is about 5.8-fold lower than that of the compound before.
